Source: publication PMC5034696 (Drug Metabolism and Disposition, 2016)

How the values were obtained:
human liver microsomes [1] = assay type: in vitro ADME; conditions: HLM, p < 0.05; for S,S-OH-bupropion formation higher than control: 1 μM S-bupropion
human liver microsomes [2] = assay type: in vitro ADME; conditions: HLM
CYP2C19 = conditions: vs extensive metabolizers; ref Zhu et al., 2014; cited from earlier work
[3] = in vivo, humans; ref Turpeinen et al., 2005; cited from earlier work

## CCC1(c2ccccc2)NC(=O)N(Cc2ccccc2)C1=O (single isomer, unassigned; (+)) [N-benzylnirvanol, (+)-N-3-benzylnirvanol]
Human liver microsomes [1]; 1 μM R-bupropion
  R,R-OH-bupropion formation higher than control: 11%
Human liver microsomes [1]
  S,S-OH-bupropion formation higher than control: 20%
Human liver microsomes [2]; 1 µM R-bupropion
  inhibition of 4′-OH-bupropion formation from R-bupropion: 84%
Human liver microsomes [2]; 1 µM S-bupropion
  inhibition of 4′-OH-bupropion formation from S-bupropion: 82%

## CC(NC(C)(C)C)C(=O)c1cccc(Cl)c1 (stereo not shown) [bupropion]
Chiral inversion; scaled to blood volume (5 l)
  estimated in vivo isomerization CL: 2.7 L/h
Chiral inversion; scaled to total body water (42 l)
  estimated in vivo isomerization CL: 22.7 L/h
CYP2C19
  increase in bupropion AUC in CYP2C19 intermediate metabolizers: 13%

## COC(=O)[C@H](c1ccccc1Cl)N1CCc2sccc2C1 [clopidogrel]
[3]
  increase in bupropion AUC: 36%

## CC(C)(O)c1ccccc1CC[C@@H](SCC1(CC(=O)O)CC1)c1cccc(/C=C/c2ccc3ccc(Cl)cc3n2)c1 [montelukast]
Human liver microsomes [1]
  S,S-OH-bupropion formation higher than control: 15%

## Clc1ccccc1CN1CCc2sccc2C1 [ticlopidine]
[3]
  increase in bupropion AUC: 61%
